{"source": "patent US10413505B1", "about": "“Pharmaceutical compositions and methods of using the same” (priority 2017, dated 2019)", "key": {"[1]": {"test": "Example 3 plasma pharmacokinetics, normal hepatic function vs hepatic impairment"}, "[2]": {"test": "Example 2 plasma pharmacokinetics, normal renal function vs severe renal impairment", "details": "all samples in all individuals except four samples in one subject; Example 2"}, "[3]": {"details": "plasma, subjects with hepatic impairment, single intranasal dose"}}}
{"compound": "COC(=O)[C@H]1[C@@H](OC(=O)c2ccccc2)C[C@@H]2CC[C@H]1N2", "note": "[norcocaine]", "values": [{"measurement": "plasma concentration (not measurable, below LLOQ)", "setting": "[1]; all subjects with normal hepatic function, all time points", "value": "< 0.1", "unit": "ng/mL"}, {"measurement": "plasma concentration, low levels detected", "setting": "[1]; multiple time points in three Grade B impaired subjects", "value": "≤ 0.31", "unit": "ng/mL"}, {"measurement": "AUC0→t (Geometric mean)", "setting": "[1]; [3]", "value": 0.753, "unit": "ng·h/mL"}, {"measurement": "AUC0→t (Mean)", "setting": "[1]; [3]", "value": 0.950, "unit": "ng·h/mL"}, {"measurement": "AUC0→t (Median)", "setting": "[1]; [3]", "value": 0.788, "unit": "ng·h/mL"}, {"measurement": "Clast (Geometric mean)", "setting": "[1]; [3]", "value": 0.126, "unit": "ng/mL"}, {"measurement": "Clast (Mean)", "setting": "[1]; [3]", "value": 0.127, "unit": "ng/mL"}, {"measurement": "Clast (Median)", "setting": "[1]; [3]", "value": 0.126, "unit": "ng/mL"}, {"measurement": "Cmax (Geometric mean)", "setting": "[1]; [3]", "value": 0.219, "unit": "ng/mL"}, {"measurement": "Cmax (Mean)", "setting": "[1]; [3]", "value": 0.227, "unit": "ng/mL"}, {"measurement": "Cmax (Median)", "setting": "[1]; [3]", "value": 0.212, "unit": "ng/mL"}, {"measurement": "Tlast (Geometric mean)", "setting": "[1]; [3]", "value": 5.24, "unit": "h"}, {"measurement": "Tlast (Mean)", "setting": "[1]; [3]", "value": 6.33, "unit": "h"}, {"measurement": "Tlast (Median)", "setting": "[1]; [3]", "value": 4.00, "unit": "h"}, {"measurement": "Tmax (Geometric mean)", "setting": "[1]; [3]", "value": 1.50, "unit": "h"}, {"measurement": "Tmax (Mean)", "setting": "[1]; [3]", "value": 1.50, "unit": "h"}, {"measurement": "Tmax (Median)", "setting": "[1]; [3]", "value": 1.50, "unit": "h"}, {"measurement": "t1/2 (Geometric mean)", "setting": "[1]; [3]", "value": 5.07, "unit": "h"}, {"measurement": "t1/2 (Mean)", "setting": "[1]; [3]", "value": 6.23, "unit": "h"}, {"measurement": "t1/2 (Median)", "setting": "[1]; [3]", "value": 6.23, "unit": "h"}, {"measurement": "plasma concentration", "setting": "[1]; single time point (7 min) in one Grade B subject", "value": 0.354, "unit": "ng/mL"}, {"measurement": "plasma concentration (below the LLOQ)", "setting": "[2]", "value": "< 0.1", "unit": "ng/mL"}]}
